Active and inactive are the calls of the source.
What was measured:
[1] = biological target: T1, Glucocorticoid receptor (Homo sapiens) (UniProt P04150); test: Agonist activity at human Glucocorticoid receptor expressed in human HeLa cells assessed as DHT-induced response after 40 hrs by luciferase/beta-galactosidase-based reporter gene assay; type: functional, cell-based
T1 sequence (whole entry): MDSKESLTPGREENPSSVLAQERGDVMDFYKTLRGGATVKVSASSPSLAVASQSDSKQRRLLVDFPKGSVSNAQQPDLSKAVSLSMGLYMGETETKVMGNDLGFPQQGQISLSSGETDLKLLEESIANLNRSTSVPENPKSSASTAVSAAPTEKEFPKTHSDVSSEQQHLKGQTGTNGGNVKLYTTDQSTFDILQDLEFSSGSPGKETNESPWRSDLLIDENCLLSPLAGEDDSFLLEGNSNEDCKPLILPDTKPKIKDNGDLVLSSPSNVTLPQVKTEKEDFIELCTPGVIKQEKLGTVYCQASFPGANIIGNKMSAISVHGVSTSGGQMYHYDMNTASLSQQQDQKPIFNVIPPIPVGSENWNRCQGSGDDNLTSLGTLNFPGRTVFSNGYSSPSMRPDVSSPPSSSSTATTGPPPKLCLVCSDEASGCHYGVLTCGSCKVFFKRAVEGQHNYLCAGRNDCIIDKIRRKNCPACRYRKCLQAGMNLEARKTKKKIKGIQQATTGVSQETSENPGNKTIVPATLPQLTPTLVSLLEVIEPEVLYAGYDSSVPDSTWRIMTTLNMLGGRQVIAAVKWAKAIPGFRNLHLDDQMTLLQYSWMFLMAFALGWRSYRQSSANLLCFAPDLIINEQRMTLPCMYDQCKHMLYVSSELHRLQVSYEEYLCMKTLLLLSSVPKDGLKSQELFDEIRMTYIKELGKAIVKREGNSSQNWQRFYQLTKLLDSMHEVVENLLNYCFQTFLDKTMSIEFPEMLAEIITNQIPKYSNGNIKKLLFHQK

[2] = biological target: T2, Androgen receptor (Homo sapiens) (UniProt P10275); test: Antagonist activity at human androgen receptor expressed in human HeLa cells assessed as inhibition of DHT-induced response after 40 hrs by luciferase/beta-galactosidase-based reporter gene assay; type: functional, cell-based
T2 sequence (whole entry): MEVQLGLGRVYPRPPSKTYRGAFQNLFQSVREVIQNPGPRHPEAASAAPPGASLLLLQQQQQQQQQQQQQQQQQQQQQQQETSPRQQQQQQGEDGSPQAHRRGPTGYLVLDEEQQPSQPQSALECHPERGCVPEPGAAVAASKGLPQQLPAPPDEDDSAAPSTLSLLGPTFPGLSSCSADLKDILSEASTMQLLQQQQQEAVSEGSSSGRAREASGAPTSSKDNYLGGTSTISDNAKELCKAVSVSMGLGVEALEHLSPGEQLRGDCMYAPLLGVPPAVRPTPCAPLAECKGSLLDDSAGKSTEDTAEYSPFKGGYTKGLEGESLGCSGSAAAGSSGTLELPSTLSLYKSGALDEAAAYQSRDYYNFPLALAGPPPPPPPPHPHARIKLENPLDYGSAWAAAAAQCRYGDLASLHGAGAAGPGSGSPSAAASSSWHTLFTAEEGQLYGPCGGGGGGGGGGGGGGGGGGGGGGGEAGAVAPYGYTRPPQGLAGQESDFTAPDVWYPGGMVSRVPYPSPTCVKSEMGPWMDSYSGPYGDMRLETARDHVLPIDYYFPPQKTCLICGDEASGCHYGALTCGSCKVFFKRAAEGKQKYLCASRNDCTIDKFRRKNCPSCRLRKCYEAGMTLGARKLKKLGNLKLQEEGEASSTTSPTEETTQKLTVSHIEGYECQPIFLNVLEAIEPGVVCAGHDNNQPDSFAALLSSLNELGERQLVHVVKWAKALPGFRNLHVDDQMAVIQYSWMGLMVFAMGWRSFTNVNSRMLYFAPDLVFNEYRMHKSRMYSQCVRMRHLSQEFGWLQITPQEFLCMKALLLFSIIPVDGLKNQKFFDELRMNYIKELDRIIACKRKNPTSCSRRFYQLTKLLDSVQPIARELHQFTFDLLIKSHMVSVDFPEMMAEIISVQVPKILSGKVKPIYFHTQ

[3] = biological target: T3, Estrogen receptor (Homo sapiens) (UniProt P03372); test: Antagonist activity at human ERalpha receptor expressed in human HeLa cells assessed as inhibition of DHT-induced response after 40 hrs by luciferase/beta-galactosidase-based reporter gene assay; type: functional, cell-based
T3 sequence (whole entry): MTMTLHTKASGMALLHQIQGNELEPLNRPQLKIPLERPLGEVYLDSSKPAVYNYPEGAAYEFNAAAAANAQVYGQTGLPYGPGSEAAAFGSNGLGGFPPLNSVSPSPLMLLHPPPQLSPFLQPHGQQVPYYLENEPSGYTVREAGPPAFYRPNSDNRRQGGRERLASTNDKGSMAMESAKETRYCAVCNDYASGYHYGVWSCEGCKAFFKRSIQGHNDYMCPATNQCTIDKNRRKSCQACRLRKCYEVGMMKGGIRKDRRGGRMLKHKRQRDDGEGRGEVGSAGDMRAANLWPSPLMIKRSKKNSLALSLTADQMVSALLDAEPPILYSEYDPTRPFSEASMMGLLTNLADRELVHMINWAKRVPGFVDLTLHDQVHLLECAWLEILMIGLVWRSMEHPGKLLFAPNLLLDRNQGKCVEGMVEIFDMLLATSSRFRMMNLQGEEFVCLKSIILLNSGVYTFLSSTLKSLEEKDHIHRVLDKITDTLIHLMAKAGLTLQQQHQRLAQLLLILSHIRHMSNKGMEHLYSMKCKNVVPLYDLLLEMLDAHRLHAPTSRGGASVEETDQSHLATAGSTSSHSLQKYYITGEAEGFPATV

[4] = biological target: T3, Estrogen receptor (Homo sapiens); test: Agonist activity at human Estrogen receptor ERalpha expressed in human HeLa cells assessed as DHT-induced response after 40 hrs by luciferase/beta-galactosidase-based reporter gene assay; type: functional, cell-based
[5] = biological target: T1, Glucocorticoid receptor (Homo sapiens); test: Antagonist activity at human GR receptor expressed in human HeLa cells assessed as inhibition of DHT-induced response after 40 hrs by luciferase/beta-galactosidase-based reporter gene assay; type: functional, cell-based
[6] = biological target: T4, 17-beta-hydroxysteroid dehydrogenase type 1 (Homo sapiens) (UniProt P14061); test: Inhibition of human recombinant 17-beta-HSD1 expressed in human HeLa cells using estrone as substrate preincubated for 30 mins prior substrate addition measured after 120 mins by spectrophotometry; type: cell-based
T4 sequence (whole entry): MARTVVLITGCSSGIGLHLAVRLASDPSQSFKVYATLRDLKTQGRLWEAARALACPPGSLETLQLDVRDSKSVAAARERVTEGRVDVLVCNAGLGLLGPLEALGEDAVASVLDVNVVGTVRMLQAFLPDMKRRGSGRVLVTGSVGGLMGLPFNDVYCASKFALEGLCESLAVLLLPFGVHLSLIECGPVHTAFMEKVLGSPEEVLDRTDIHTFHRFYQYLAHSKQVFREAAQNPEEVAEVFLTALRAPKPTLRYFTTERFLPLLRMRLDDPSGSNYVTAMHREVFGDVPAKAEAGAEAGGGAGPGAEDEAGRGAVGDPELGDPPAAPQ

[7] = biological target: T2, Androgen receptor (Homo sapiens); test: Agonist activity at human androgen receptor expressed in human HeLa cells assessed as DHT-induced response after 40 hrs by luciferase/beta-galactosidase-based reporter gene assay; type: functional, cell-based

COc1ccc(N2C(=O)/C(=C/c3cc(Cl)c(OP(=O)(O)O)c(Cl)c3)OC2=S)cc1
inactive: Activity [1] | Activity [2] | Activity [3] | Activity [4] | Activity [5] | inhibition [6] | Activity [7]

COc1ccc(N2C(=O)/C(=C/c3cc(Cl)c(O)c(Cl)c3)OC2=S)cc1
inactive: Activity [1] | Activity [2] | Activity [3] | Activity [4] | Activity [5] | inhibition [6] | Activity [7]

Source: ChEMBL document CHEMBL2016457, “Discovery of potent and orally bioavailable 17β-hydroxysteroid dehydrogenase type 3 inhibitors” (Bioorg Med Chem, 2012)
